Measurements as given in PMC12635197, “Discovery of first-in-class inhibitors of the TRF1:TIN2 protein:protein interaction by fragment screening” (Scientific Reports, 2025).

T1: TRF1TRFH (Homo sapiens, UniProt P54274)
T1 construct: encoding residues 47–268, UniProt identifier P54274-1; His6-MBP (TEV-cleavable) (N, cleaved yes); made in house; host or cells: E. coli BL21-CodonPlus(DE3)-RIL
T1 sequence (P54274 47-268): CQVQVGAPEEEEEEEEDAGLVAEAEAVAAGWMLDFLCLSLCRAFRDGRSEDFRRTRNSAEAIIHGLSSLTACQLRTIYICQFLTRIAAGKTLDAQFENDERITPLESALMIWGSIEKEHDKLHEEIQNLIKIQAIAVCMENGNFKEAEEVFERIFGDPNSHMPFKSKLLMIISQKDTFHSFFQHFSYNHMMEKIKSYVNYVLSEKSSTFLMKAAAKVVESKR

T2: (StrepII)2-TEV-tagged TIN2, subunit of recombinant shelterin (UniProt Q9BSI4-1 1-451)
T2 construct: TIN2, gene NM_001099274.1, codon-optimised; a TEV site lies between tag and protein; The separately made control protein is called TIN2L; The discussion says that the complex carries a short peptidic tag on TIN2; source: Sf9, co-expressed with the other shelterin subunits (MultiBac baculovirus), purified (StrepTrap, serial SEC)
T2 sequence (looked up): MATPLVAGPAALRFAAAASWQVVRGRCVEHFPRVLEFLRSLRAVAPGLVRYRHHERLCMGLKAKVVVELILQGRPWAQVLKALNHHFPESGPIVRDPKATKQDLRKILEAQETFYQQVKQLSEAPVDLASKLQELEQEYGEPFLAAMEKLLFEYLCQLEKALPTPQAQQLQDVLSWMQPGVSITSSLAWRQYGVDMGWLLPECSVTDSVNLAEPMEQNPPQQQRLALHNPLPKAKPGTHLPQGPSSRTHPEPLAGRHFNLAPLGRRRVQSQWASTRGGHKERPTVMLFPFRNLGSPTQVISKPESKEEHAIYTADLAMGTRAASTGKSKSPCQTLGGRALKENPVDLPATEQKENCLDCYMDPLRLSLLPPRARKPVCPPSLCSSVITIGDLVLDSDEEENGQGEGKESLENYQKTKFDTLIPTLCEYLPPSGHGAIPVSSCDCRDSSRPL


Experiments:
[1] = Fragment solubility assay (quantitative 1H NMR); type: physicochemical; conditions: Supplementary Table 1
Description: Aqueous solubility test samples were prepared by adding 3.6 µL compound (50 mM stock in 100% DMSO-d6) to 176.4 µL NMR buffer in a microcentrifuge tube. The samples were incubated overnight and transferred to a 3-mm NMR tube (Bruker, Part No. Z112272). ^1H NMR spectra were recorded, with the DMSO and water signals dampened. 1 mM caffeine (Sigma, C1778 in PBS (pH 7.4) with 1% DMSO-d6) was used as a standard to quantify the ligand signals and determine the concentration of samples.
NMR data were collected on a Bruker Avance Neo 600-MHz spectrometer equipped with a 5 mm TCI-CryoProbe. The ^1H spectrum was referenced to the internal deuterated solvent. The operating frequency for ^1H was 600 MHz. All NMR data were acquired at the temperature of 298 K. All data were acquired and processed using Bruker Topspin 4.0. The quantitative ^1H-NMR spectrum was acquired using a Bruker standard 1D lc1pngppsf2 pulse sequence with 32 scans. The sweep width was 6.2 ppm with O1P set to 8.8 ppm, and the FID contained 16k time-domain data points. Relaxation delay was set to 20 s. Water signal was suppressed.

TRF1TRFH [2] = target: T1, TRF1TRFH; experiment: LO-NMR CPMG assay (relaxation-edited), singletons; type: binding; conditions: single experiment
Description: We next used a LO-NMR CPMG assay to orthogonally validate XChem hits in solution, aiming to eliminate false positives and rank hit matter for follow-up studies. Compounds were tested as singletons and prepared in two samples containing either compound alone (sample 1) or compound + TRF1TRFH (sample 2).
The fragment screen by LO-NMR was carried out using conditions described previously, with some modifications. Fragments were dispensed in triplicate into a 384-well plate using an Echo 550 liquid handler to give a final ligand concentration of 250 µM (total sample volume of 40 µL). 40 µL of TRF1TRFH protein (in NMR buffer; 20 µM final protein concentration in the assay) were added to the ‘protein’ samples; 40 µL of TRF1TRFH protein and TIN2TBM peptide (21-mer, Ac-[…]-CONH2; 40 µM final concentration in the assay) were both added to the ‘competitor’ samples; 40 µL NMR buffer were added to the ‘compound-only’ samples. Solutions were transferred to 1.7-mm NMR tubes using a Bruker SamplePro Tube robotics system. ^1H NMR spectra were recorded on a Bruker AVIII 500 MHz spectrometer at 298 K, equipped with a 1.7-mm TXI probe, with samples in 1.7-mm SampleJET NMR tubes (Bruker). DMSO and water signals were dampened. A relaxation spin filter was applied at 400 ms. Data were processed using Bruker Topspin 4.0. Lines were broadened with LB = 3.0, and the baseline was corrected between 6.0 and 10.0 ppm.
The data were then analysed using the MNova Screen software. Only peaks between 5.5 and 9.5 ppm were considered. Peaks with a height of < 5% maximum peak height within the region of interest were considered noise, and the minimum matched peak level was set at > 51%. The relative peak intensity change (I) was calculated for all peaks in the 5.5–9.5 ppm region, for each compound, as described previously. The average integral for all peaks between 6.0 and 10.0 ppm was calculated, and the differences between compound-only, compound-plus-protein, and compound-plus-protein-plus-competitor samples were compared. The net recovery was calculated by subtracting the reduction in peak integral of the compound-plus-protein samples from the compound-plus-protein-plus-competitor samples.
For hit validation, relaxation-edited LO-NMR experiments were repeated as described above on single compounds instead of fragment cocktails.

TRF1TRFH [3] = target: T1, TRF1TRFH; experiment: Crystal soaking of TRF1TRFH crystals; conditions: soaking into TRF1TRFH crystals; Supplementary Table 1
Source text: Attempts to soak TRF1TRFH crystals with the commercially available analogues of the XChem hit 5 were also unsuccessful. Only one slightly smaller analogue (22) could be soaked into TRF1TRFH crystals, albeit with an ambiguous binding mode. […] In the case of compound 5, we observed a hydrogen bond between the amino group of the fragment and a backbone carbonyl in the neighbouring protein chain (Fig. 2i). […] Additionally, the pocket normally occupied by the conserved phenylalanine residue of the TIN2 F-X-L-X-P motif was fully obstructed by a crystal contact with a TRF1TRFH copy in an adjacent asymmetric unit, further limiting the possibility of obtaining XChem hits outside of the leucine pocket.
TRF1TRFH crystals in the P3_121 space group were grown by sitting drop vapour diffusion in SWISSCI 3-drop plates using similar crystallisation conditions to those described previously. The total drop volume was 300 nL, consisting of 150 nL of TRF1TRFH (31.2 mg/mL) and 150 nL of reservoir solution (1% PEG8000, 100 mM MES pH 6.0, 1–12 mM Mg(OAc)2, 10–15% glycerol), whilst the reservoir volume was 35 µL. Crystallisation plates were set up using an SPT Labtech mosquito Xtal2 liquid handler. Cuboid-shaped crystals grew to their maximum size (300 μm across) within 24 h. Crystals were cryoprotected through the addition of 180 nL of 40% glycerol to the crystal drop prior to harvesting, giving a final glycerol concentration of […] (accounting for the glycerol already in the crystallisation conditions). The crystals were then flash-frozen in liquid nitrogen, and data were collected at the Diamond Light Source beamlines I04 and I04-1 and processed automatically using the Xia2 Dials pipeline[53],[54]. The TRF1TRFH structure was solved by molecular replacement in Phaser MR[55] within CCP4[56] using the previously published TRF1TRFH structure as a search model (PDB: 1H6O)[31], after having first stripped the search model of solvent molecules and ligands. Structure refinement was done using Refmac[57] and Buster[36], and model correction and building was done using Coot 0.9.6[35].
The DSi-Poised library (768 fragment, Enamine)[32], the EUbOPEN DSiP extension library (108 fragments) and the FragLite library (31 fragments)[33] were screened against TRF1TRFH crystals. Compounds at 500 mM in DMSO stocks were dispensed into selected crystal drops as singletons using an Echo 550 liquid handler to give a final concentration of 50 mM (10% DMSO final concentration). After incubation for 1 h at 20 °C, 180 nL of glycerol (40% stock, final drop concentration 28.8–32.5%) were added to each drop immediately prior to crystal harvesting and flash-freezing in liquid nitrogen.
Data were collected on the I04-1 beamline at Diamond Light Source. […]

[4] = target: T2, (StrepII)2-TEV-tagged TIN2, subunit of …; experiment: mass photometry; SEC-purified shelterin without compound; complex of around 700 kDa; 50 mM HEPES-NaOH pH 8.0, 300 mM NaCl; conditions: both partners purified

Molecule | stoichiometry N [4] | other results
Nc1nc2cc3c(cc2s1)OCO3 [Compound 24] |  | Aq. Sol. [1]: 400 µM; CPMG reduction (TRF1TRFH [2]; average peak intensity reduction on addition of TRF1TRFH, 250 µM ligand, 20 µM protein): 28%; CPMG recovery (TRF1TRFH [2]; net recovery of peak intensity on addition of TIN2TBM peptide (40 µM) to compound plus protein): 11%; Crystal structure (TRF1TRFH [3]): No
RAP1, subunit of recombinant shelterin (natural protein, UniProt Q9NYB0 1-399, looked up, RAP1 (TRF2-associated shelterin subunit), gene NM_018975.3, codon-optimised) MAEAMDLGKDPNGPTHSSTLFVRDDGSSMSFYVRPSPAKRRLSTLILHGGGTVCRVQEPGAVLLAQPGEALAEASGDFISTQYILDCVERNERLELEAYRLGPASAADTGSEAKPGALAEGAAEPEPQRHAGRIAFTDADDVAILTYVKENARSPSSVTGNALWKAMEKSSLTQHSWQSLKDRYLKHLRGQEHKYLLGDAPVSPSSQKLKRKAEEDPEAADSGEPQNKRTPDLPEEEYVKEEIQENEEAVKKMLVEATREFEEVVVDESPPDFEIHITMCDDDPPTPEEDSETQPDEEEEEEEEKVSQPEVGAAIKIIRQLMEKFNLDLSTVTQAFLKNSGELEATSAFLASGQRADGYPIWSRQDDIDLQKDDEDTREALVKKFGAQNVARRIEFRKK | 4 RAP1 per TIN2 | 
TPP1, subunit of recombinant shelterin (natural protein, UniProt Q96AP0 1-458, looked up, TPP1 (shelterin subunit), gene BC016904.1, codon-optimised) MAGSGRLVLRPWIRELILGSETPSSPRAGQLLEVLQDAEAAVAGPSHAPDTSDVGATLLVSDGTHSVRCLVTREALDTSDWEEKEFGFRGTEGRLLLLQDCGVHVQVAEGGAPAEFYLQVDRFSLLPTEQPRLRVPGCNQDLDVQKKLYDCLEEHLSESTSSNAGLSLSQLLDEMREDQEHQGALVCLAESCLTLEGPCTAPPVTHWAASRCKATGEAVYTVPSSMLCISENDQLILSSLGPCQRTQGPELPPPDPALQDLSLTLIASPPSSPSSSGTPALPGHMSSEESGTSISLLPALSLAAPDPGQRSSSQPSPAICSAPATLTPRSPHASRTPSSPLQSCTPSLSPRSHVPSPHQALVTRPQKPSLEFKEFVGLPCKNRPPFPRTGATRGAQEPCSVWEPPKRHRDGSAFQYEYEPPCTSLCARVQAVRLPPQLMAWALHFLMDAQPGSEPTPM | 1 TPP1 per TIN2 | 
POT1, subunit of recombinant shelterin (natural protein, UniProt Q9NUX5-1 1-634, looked up, POT1 (shelterin subunit), gene NM_015450, codon-optimised) MSLVPATNYIYTPLNQLKGGTIVNVYGVVKFFKPPYLSKGTDYCSVVTIVDQTNVKLTCLLFSGNYEALPIIYKNGDIVRFHRLKIQVYKKETQGITSSGFASLTFEGTLGAPIIPRTSSKYFNFTTEDHKMVEALRVWASTHMSPSWTLLKLCDVQPMQYFDLTCQLLGKAEVDGASFLLKVWDGTRTPFPSWRVLIQDLVLEGDLSHIHRLQNLTIDILVYDNHVHVARSLKVGSFLRIYSLHTKLQSMNSENQTMLSLEFHLHGGTSYGRGIRVLPESNSDVDQLKKDLESANLTANQHSDVICQSEPDDSFPSSGSVSLYEVERCQQLSATILTDHQYLERTPLCAILKQKAPQQYRIRAKLRSYKPRRLFQSVKLHCPKCHLLQEVPHEGDLDIIFQDGATKTPDVKLQNTSLYDSKIWTTKNQKGRKVAVHFVKNNGILPLSNECLLLIEGGTLSEICKLSNKFNSVIPVRSGHEDLELLDLSAPFLIQGTIHHYGCKQCSSLRSIQNLNSLVDKTSWIPSSVAEALGIVPLQYVFVMTFTLDDGTGVLEAYLMDSDKFFQIPASEVLMDDDLQKSVDMIMDMFCPPGIKIDAYPWLECFIKSYNVTNGTDNQICYQIFDTTVAEDVI | 1 POT1 per TIN2 | 
TRF2 (telomeric repeat-binding factor 2), subunit of recombinant shelterin (natural protein, UniProt Q15554-3 1-542, looked up, TRF2, gene NM_005652.4, codon-optimised) MAAGAGTAGPASGPGVVRDPAASQPRKRPGREGGEGARRSDTMAGGGGSSDGSGRAAGRRASRSSGRARRGRHEPGLGGPAERGAGEARLEEAVNRWVLKFYFHEALRAFRGSRYGDFRQIRDIMQALLVRPLGKEHTVSRLLRVMQCLSRIEEGENLDCSFDMEAELTPLESAINVLEMIKTEFTLTEAVVESSRKLVKEAAVIICIKNKEFEKASKILKKHMSKDPTTQKLRNDLLNIIREKNLAHPVIQNFSYETFQQKMLRFLESHLDDAEPYLLTMAKKALKSESAASSTGKEDKQPAPGPVEKPPREPARQLRNPPTTIGMMTLKAAFKTLSGAQDSEAAFAKLDQKDLVLPTQALPASPALKNKRPRKDENESSAPADGEGGSELQPKNKRMTISRLVLEEDSQSTEPSAGLNSSQEAASAPPSKPTVLNQPLPGEKNPKVPKGKWNSSNGVEEKETWVEEDELFQVQAAPDEDSTTNITKKQKWTVEESEWVKAGVQKYGEGNWAAISKNYPFVNRTAVMIKDRWRTMKRLGMN | 4 TRF2 per TIN2 | 
